Results as given in the NIST ThermoML archive (doi:10.1016/j.fluid.2012.08.016).
± gives the expanded uncertainty stated by the source.

Test: xn = mol fraction of the nth substance listed
Details: Liquid, Vibrating tube method, x2 = 0.667

C[N+](C)(C)CCO.[Cl-] [choline chloride] + OCC(O)CO
mass density [kg/m3]
Details	298.15 K	303.15 K	308.15 K	313.15 K	318.15 K	323.15 K
100 kPa	1192.1 ± 2.6	1189.2 ± 2.6	1186.2 ± 2.6	1183.4 ± 2.6	1180.5 ± 2.6	1177.7 ± 2.6
5000 kPa	1193.6 ± 2.7	1190.7 ± 2.7	1187.7 ± 2.6	1184.9 ± 2.6	1182 ± 2.6	1179.2 ± 2.6
10000 kPa	1195 ± 2.7	1192.1 ± 2.7	1189.2 ± 2.7	1186.3 ± 2.7	1183.5 ± 2.7	1180.6 ± 2.6
15000 kPa	1196.3 ± 2.7	1193.5 ± 2.7	1190.6 ± 2.7	1187.7 ± 2.7	1184.9 ± 2.7	1182.1 ± 2.7
20000 kPa	1197.7 ± 2.7	1194.8 ± 2.7	1192 ± 2.7	1189.1 ± 2.7	1186.3 ± 2.7	1183.5 ± 2.7
25000 kPa	1199.1 ± 2.7	1196.2 ± 2.7	1193.3 ± 2.7	1190.5 ± 2.7	1187.7 ± 2.7	1184.9 ± 2.7
30000 kPa	1200.4 ± 2.8	1197.6 ± 2.8	1194.7 ± 2.7	1191.9 ± 2.7	1189.1 ± 2.7	1186.3 ± 2.7
35000 kPa	1201.7 ± 2.8	1198.9 ± 2.8	1196 ± 2.8	1193.3 ± 2.8	1190.4 ± 2.8	1187.7 ± 2.7
40000 kPa	1203 ± 2.8	1200.2 ± 2.8	1197.4 ± 2.8	1194.6 ± 2.8	1191.8 ± 2.8	1189.1 ± 2.8
45000 kPa	1204.3 ± 2.8	1201.5 ± 2.8	1198.7 ± 2.8	1195.9 ± 2.8	1193.1 ± 2.8	1190.4 ± 2.8
50000 kPa	1205.6 ± 2.9	1202.8 ± 2.8	1200 ± 2.8	1197.2 ± 2.8	1194.4 ± 2.8	1191.7 ± 2.8
